Test results as given in patent US6391868B1, “Use of 5-alpha-androst-1-en-3,17-dione to increase the level of the anabolic/androgenic hormone 17-beta-hydroxy-5-alpha-androst-1-en-3-one in humans” (LPT Research, Inc., priority 2000, dated 2002).

Key:
[1] = Oral treatment of a person with andropause-type symptoms; type: in vivo, human; conditions: oral 3×100 mg daily, 4 weeks, one person
Protocol: A person with complaints of decreased libido, lethargy, depression, and muscular weakness, was treated for 4 weeks with oral androstenedione 3×100 mg daily. […] After a 2 week respite, they then commenced a 4 week regimen of 5alpha-ANDROST-1-EN-3,17-DIONE using the same protocol (3×100 mg daily).

[2] = Steroids (8) 216; cited from earlier work
[3] = 100 mg orally to men; cited from earlier work

SMILES	reported improvement of symptoms (decreased libido, lethargy, depression, muscular weakness) [1]	anabolic properties relative to testosterone [2]	excretion of 17beta-hydroxy-5alpha-androst-1-en-3-one in the urine [3]
C[C@]12CCC(=O)C=C1CC[C@@H]1[C@@H]2CC[C@]2(C)C(=O)CC[C@@H]12 [androstenedione, 4-androstenedione]	did not report any noticeable improvement	–	–
C[C@]12C=CC(=O)C[C@@H]1CC[C@@H]1[C@@H]2CC[C@]2(C)[C@@H](O)CC[C@@H]12 [17beta-hydroxy-5alpha-androst-1-en-3-one]	–	considerably more potent	–
C[C@]12C=CC(=O)C[C@@H]1CC[C@@H]1[C@@H]2CC[C@]2(C)C(=O)CC[C@@H]12 [5alpha-ANDROST-1-EN-3,17-DIONE, 5alpha-androst-1-en-3,17-dione]	clearly evident significant improvements in all their symptoms	–	considerable excretion
